Reference: patent publication US20230015823A1, “METHODS OF ADMINISTERING VOXELOTOR” (Global Blood Therapeutics, Inc., priority 2019, published 2023)
Like-named read-outs stand apart in the source and are kept apart here.

Columns and labels:
[1] = Phase 1 study of a single oral dose of voxelotor in subjects with hepatic impairment: whole blood and plasma PK; assay type: in vivo, human; conditions: for AUC(0-t) / Cmax / Vd/F / half-life / Tmax / AUC(0-inf): human, po; for Cmax: read-out: Cmax, GM (converted); for Vd/F: read-out: Vz/F, GM (converted); for half-life: read-out: t1/2, mean (converted); for Tmax: read-out: tmax, median (converted); for AUC(0-inf): read-out: AUCinf, GM (converted)
Procedure: A Phase 1, open-label study was performed to characterize pharmacokinetics (PK) and safety of a single oral dose of voxelotor in subjects with hepatic impairment. The study was to assess the effects of mild, moderate, or severe hepatic impairment on the PK of a single oral dose of voxelotor, to evaluate the safety and tolerability of a single oral dose of voxelotor in subjects with mild, moderate, or severe hepatic impairment, as well as to establish potential dose adjustment guidance based upon the degree of hepatic insufficiency. […] This study was designed to assess the effects of mild, moderate, or severe hepatic impairment on the PK of a single oral dose of voxelotor. Routine safety assessments (AE monitoring, vital signs, physical examinations, clinical laboratory tests, and ECGs) were performed. Eligible subjects received a single oral dose of voxelotor 1500 mg (5×300-mg capsules) on Day 1 (for normal hepatic function, mild and moderate hepatic impairment). […] No food was allowed for at least 4 hours postdose. No water or any type of liquid was allowed for 1 hour before dosing through 1-hour postdose with the exception of water consumed for dosing. Adverse events and concomitant medication use were monitored throughout the study. Safety assessments, including physical examinations, vital signs assessments, 12-lead ECGs, and clinical laboratory tests, were performed. Whole blood and plasma concentrations of voxelotor were determined using validated assays. […] Louis, Mo.) and actual sampling times. The following PK parameters were determined. To assess the effect of hepatic impairment on the PK of voxelotor, a linear mixed-effect model was fitted to the log-transformed values of whole blood and plasma Cmax, AUCt, and AUCinf. The model included hepatic impairment group as a fixed effect and age and weight as covariates. Point estimates and 90% CIs for hepatic function group differences (mild, moderate, and severe hepatically-impaired subjects [test] versus the normal hepatic function subjects [control]) on the log scale were exponentiated to obtain estimates for GM ratios on the original scale. Voxelotor whole blood and plasma concentrations were measured using a validated liquid chromatography-mass spectrometry method. The lower limit of assay quantitation for voxelotor was 10.0 ng/mL for whole blood and 5.00 ng/mL in plasma.

[2] = system: bacterial reverse mutation; experiment: Reverse mutation bacterial (Ames) test; assay type: cell-based
Excerpt: Voxelotor was not genotoxic in the reverse mutation bacterial (Ames) test, rat Comet assay, or rat micronucleus assay.

[3] = whole blood, 600 mg, whole blood, severe hepatic impairment, 600 mg single oral dose
[4] = whole blood, 1500 mg, whole blood, mild hepatic impairment, 1500 mg single oral dose
[5] = whole blood, 1500 mg, whole blood, moderate hepatic impairment, 1500 mg single oral dose
[6] = whole blood, 1500 mg, whole blood, normal hepatic function, 1500 mg single oral dose
[7] = plasma, Mild (Test) vs Normal (Ref)
[8] = plasma, Moderate (Test) vs Normal (Ref)
[9] = plasma, Severe (Test, adjusted for dose) vs Normal (Ref)
[10] = severe hepatic impairment, Cmax adjusted for dose
[11] = whole blood, Mild (Test) vs Normal (Ref)
[12] = whole blood, Moderate (Test) vs Normal (Ref)
[13] = whole blood, Severe (Test, adjusted for dose) vs Normal (Ref)

CC(C)n1nccc1-c1ncccc1COc1cccc(O)c1C=O [voxelotor, 2-hydroxy-6-((2-(1-isopropyl-1H-pyrazol-5-yl)pyridin-3-yl)methoxy)benzaldehyde]
AUC(0-t) ([1]; whole blood, 600 mg, whole blood, severe hepatic impairment, 600 mg single oral dose, adjusted for dose to 1500 mg, read-out: AUCt, GM (converted)): 13300 µg·h/mL
Cmax ([1]; whole blood, 600 mg, whole blood, severe hepatic impairment, 600 mg single oral dose, adjusted for dose to 1500 mg): 86.6 µg/mL
Vd/F [1, 3]: 17.6 L
half-life [1, 3]: 111 h
Tmax [1, 3]: 24 h
AUC(0-t) ([1]; whole blood, 1500 mg, whole blood, mild hepatic impairment, 1500 mg single oral dose, read-out: AUC0-96, GM (converted)): 5160 µg·h/mL
AUC(0-inf) [1, 4]: 8230 µg·h/mL
AUC(0-t) ([1]; whole blood, 1500 mg, whole blood, mild hepatic impairment, 1500 mg single oral dose, read-out: AUCt, GM (converted)): 8190 µg·h/mL
Cmax [1, 4]: 73.6 µg/mL
Vd/F [1, 4]: 15.8 L
half-life [1, 4]: 60.1 h
Tmax [1, 4]: 24 h
AUC(0-t) ([1]; whole blood, 1500 mg, whole blood, moderate hepatic impairment, 1500 mg single oral dose, read-out: AUC0-96, GM (converted)): 4660 µg·h/mL
AUC(0-inf) [1, 5]: 8360 µg·h/mL
AUC(0-t) ([1]; whole blood, 1500 mg, whole blood, moderate hepatic impairment, 1500 mg single oral dose, read-out: AUCt, GM (converted)): 8320 µg·h/mL
Cmax [1, 5]: 63.8 µg/mL
Vd/F [1, 5]: 20.6 L
half-life [1, 5]: 79.5 h
Tmax [1, 5]: 24 h
AUC(0-t) ([1]; whole blood, 1500 mg, whole blood, normal hepatic function, 1500 mg single oral dose, read-out: AUC0-96, GM (converted)): 4270 µg·h/mL
AUC(0-inf) [1, 6]: 6980 µg·h/mL
AUC(0-t) ([1]; whole blood, 1500 mg, whole blood, normal hepatic function, 1500 mg single oral dose, read-out: AUCt, GM (converted)): 6950 µg·h/mL
Cmax [1, 6]: 60.9 µg/mL
Vd/F [1, 6]: 19.6 L
Tmax [1, 6]: 24 h
plasma Cmax, higher than normal hepatic function ([1]; mild hepatic impairment): 18%
whole blood Cmax, higher than normal hepatic function ([1]; mild hepatic impairment): 19%
AUC in whole blood higher compared to normal hepatic function ([1]; mild hepatic impairment (Child Pugh A)): 14%
plasma Cmax, higher than normal hepatic function ([1]; moderate hepatic impairment): 51%
whole blood Cmax, higher than normal hepatic function ([1]; moderate hepatic impairment): 6%
AUC in whole blood higher compared to normal hepatic function ([1]; moderate hepatic impairment (Child Pugh B)): 15%
AUCinf, Ratio of Geometric LS Mean (Test to Reference) [1, 7]: 1.093
AUCt, Ratio of Geometric LS Mean (Test to Reference) [1, 7]: 1.089
Cmax, Ratio of Geometric LS Mean (Test to Reference) [1, 7]: 1.177
AUCinf, Ratio of Geometric LS Mean (Test to Reference) [1, 8]: 1.180
AUCt, Ratio of Geometric LS Mean (Test to Reference) [1, 8]: 1.207
Cmax, Ratio of Geometric LS Mean (Test to Reference) [1, 8]: 1.510
AUCinf, Ratio of Geometric LS Mean (Test to Reference) [1, 9]: 1.932
AUCt, Ratio of Geometric LS Mean (Test to Reference) [1, 9]: 1.907
Cmax, Ratio of Geometric LS Mean (Test to Reference) [1, 9]: 1.445
CL/F, GM ([1]; plasma, mild hepatic impairment, 1500 mg single oral dose): 76.69 L/h
CL/F, GM ([1]; plasma, moderate hepatic impairment, 1500 mg single oral dose): 56.14 L/h
CL/F, GM ([1]; plasma, normal hepatic function, 1500 mg single oral dose): 77.50 L/h
CL/F, GM ([1]; plasma, severe hepatic impairment, 600 mg single oral dose): 73.81 L/h
AUC in whole blood higher compared to normal hepatic function ([1]; severe hepatic impairment (Child Pugh C)): 90%
plasma Cmax, higher than normal hepatic function [1, 10]: 45%
whole blood Cmax, higher than normal hepatic function [1, 10]: 39%
AUCinf, Ratio of Geometric LS Mean (Test to Reference) [1, 11]: 1.141
AUCt, Ratio of Geometric LS Mean (Test to Reference) [1, 11]: 1.140
Cmax, Ratio of Geometric LS Mean (Test to Reference) [1, 11]: 1.187
AUCinf, Ratio of Geometric LS Mean (Test to Reference) [1, 12]: 1.151
AUCt, Ratio of Geometric LS Mean (Test to Reference) [1, 12]: 1.149
Cmax, Ratio of Geometric LS Mean (Test to Reference) [1, 12]: 1.056
AUCinf, Ratio of Geometric LS Mean (Test to Reference) [1, 13]: 1.902
AUCt, Ratio of Geometric LS Mean (Test to Reference) [1, 13]: 1.867
Cmax, Ratio of Geometric LS Mean (Test to Reference) [1, 13]: 1.391
CL/F, GM ([1]; whole blood, mild hepatic impairment, 1500 mg single oral dose): 70.182 L/h
CL/F, GM ([1]; whole blood, moderate hepatic impairment, 1500 mg single oral dose): 60.179 L/h
CL/F, GM ([1]; whole blood, normal hepatic function, 1500 mg single oral dose): 70.215 L/h
CL/F, GM ([1]; whole blood, severe hepatic impairment, 600 mg single oral dose): 70.110 L/h
genotoxicity [2]: not genotoxic
